US20080234236A1, “REDUCTION OF ADVERSE EVENTS AFTER PERCUTANEOUS INTERVENTION BY USE OF A THROMBIN RECEPTOR ANTAGONIST” (priority 2007, published 2008)
Values joined by “and” are separate entries in the source; they are usually repeats but may differ in a detail not shown here. Equal values may be shown once.

Legend:
human platelets = test: TRAP stimulated human platelet aggregation; format: cell-based
From the text: Schering-Plough Corp. is developing SCH 530348, which is a selective inhibitor of the primary thrombin receptor, PAR-1 (protease-activated receptor-1), on human platelets. […] Current clinical development of SCH 530348 is directed toward approval of a therapy that is adjunctive to current standard of care, e.g., the ADP antagonist clopidogrel and aspirin. However, an avoidance of bleeding risk by administration of an appropriate thrombin receptor antagonist as a monotherapy may have potential advantages over some of the currently approved antiplatelet drugs such as Plavix® (clopidogrel) and Ticlid® (ticolpidine) in certain situations such as PCI. Furthermore, the standard of care may evolve to encompass other ADP antagonists such as prasugrel. The treatment of PCI patients by administration of a thrombin receptor antagonist as adjunctive therapy to the standard of care encompasses future standards of care such as prasugrel, or any other ADP antagonist, and aspirin.

Coagulation parameters = test: Coagulation parameters; design: species or system humans; conditions: in vivo
From the text: (§1) Similarly, there is no effect on arachidonic acid (“AA”) -induced platelet aggregation (see FIGS. 16 and 17) or collagen-induced platelet aggregation (see FIGS. 18-21).

[1] = in vivo
From the text: The Phase 2 study was a randomized, double-blind, placebo-controlled, multicenter, dose-escalation study in men and women with symptoms of coronary heart disease undergoing nonurgent PCI.

hERG = hERG (Homo sapiens, UniProt Q12809); test: hERG voltage clamp assay; format: cell-based
[2] = Phase 2 study (P03573): bleeding in primary (PCI) cohort; format: in vivo, humans; conditions: for non-TIMI bleeding: Arterial Access, patients (%) / non-TIMI bleeding: Contusion/Bruise, patients (%) / non-TIMI bleeding: Expistaxis, patients (%) / non-TIMI bleeding: GI, patients (%) / non-TIMI bleeding: Genitourinary, patients (%) / non-TIMI bleeding: Gingival, patients (%) / non-TIMI bleeding: Incidental Cuts, patients (%) / non-TIMI bleeding: Vascular Puncture, patients (%): primary PCI cohort; for Any bleed, patients (%) / TIMI Major bleeding, patients (%) / TIMI Major/Minor bleeding, patients (%) / non-TIMI bleeding (overall), patients (%) / TIMI Minor bleeding, patients (%): primary cohort (PCI), 60 days
From the text: The behavior of SCH 530348 in humans was further studied in a Phase 2 clinical development program. A key safety issue for SCH 530348 is the potential for incremental bleeding when added to standard of care with other oral antiplatelet therapies as well as parenteral antithrombotics. Therefore, a single Phase 2 study (P03573) was completed to evaluate the safety of SCH 530348 in patients at high risk of bleeding events, i.e., those patients undergoing non-emergent PCI (percutaneous coronary intervention). The goals of this Phase 2 study were to: • Evaluate the safety of SCH 530348 in addition to standard of care with respect to TIMI major and minor bleeding; and, • Observe the effects of SCH 530348 on major adverse cardiac events (“MACE”) in patients successfully completing an interventional procedure.
The primary endpoint (directed to evaluating safety) was the combined […] (“TIMI”) major and TIMI minor bleeding over sixty days in the primary evaluable cohort. Though the study was not powered to evaluate efficacy, a secondary endpoint (directed to evaluating efficacy) was the incidence of the composite of death and major adverse cardiac events (“MACE”) in the primary cohort. MACE includes myocardial infarction, urgent revascularization, and ischemia requiring hospitalization. Pharmacokinetics and pharmacodynamics were assessed at selected sites across the treatment groups. Other secondary endpoints included the incidence of TIMI major and minor bleeding in the secondary evaluable cohort i.e., those individuals who received the loading dose only.

[3] = monkey, in vivo
[4] = Laboratory safety tests and ECGs at doses and durations studied to date; format: in vivo; conditions: doses and treatment duration studied to date
From the text: Overall, the study drug was generally well-tolerated.

platelets = test: Arachidonic acid (AA)-induced platelet aggregation; format: in vivo, humans; conditions: loading and maintenance doses
Protocol: A pharmacodynamic substudy incorporating light aggregometry was performed under stringent physiologic conditions and read by a central core laboratory. […] The term “therpeutically effective amount of a thrombin receptor antagonist” will be understood to mean that quantity of the thrombin receptor antagonist sufficient to achieve at least 80% inhibition of TRAP mediated platelet aggregation.
as §1

Chain of hERG (Q12809 whole entry): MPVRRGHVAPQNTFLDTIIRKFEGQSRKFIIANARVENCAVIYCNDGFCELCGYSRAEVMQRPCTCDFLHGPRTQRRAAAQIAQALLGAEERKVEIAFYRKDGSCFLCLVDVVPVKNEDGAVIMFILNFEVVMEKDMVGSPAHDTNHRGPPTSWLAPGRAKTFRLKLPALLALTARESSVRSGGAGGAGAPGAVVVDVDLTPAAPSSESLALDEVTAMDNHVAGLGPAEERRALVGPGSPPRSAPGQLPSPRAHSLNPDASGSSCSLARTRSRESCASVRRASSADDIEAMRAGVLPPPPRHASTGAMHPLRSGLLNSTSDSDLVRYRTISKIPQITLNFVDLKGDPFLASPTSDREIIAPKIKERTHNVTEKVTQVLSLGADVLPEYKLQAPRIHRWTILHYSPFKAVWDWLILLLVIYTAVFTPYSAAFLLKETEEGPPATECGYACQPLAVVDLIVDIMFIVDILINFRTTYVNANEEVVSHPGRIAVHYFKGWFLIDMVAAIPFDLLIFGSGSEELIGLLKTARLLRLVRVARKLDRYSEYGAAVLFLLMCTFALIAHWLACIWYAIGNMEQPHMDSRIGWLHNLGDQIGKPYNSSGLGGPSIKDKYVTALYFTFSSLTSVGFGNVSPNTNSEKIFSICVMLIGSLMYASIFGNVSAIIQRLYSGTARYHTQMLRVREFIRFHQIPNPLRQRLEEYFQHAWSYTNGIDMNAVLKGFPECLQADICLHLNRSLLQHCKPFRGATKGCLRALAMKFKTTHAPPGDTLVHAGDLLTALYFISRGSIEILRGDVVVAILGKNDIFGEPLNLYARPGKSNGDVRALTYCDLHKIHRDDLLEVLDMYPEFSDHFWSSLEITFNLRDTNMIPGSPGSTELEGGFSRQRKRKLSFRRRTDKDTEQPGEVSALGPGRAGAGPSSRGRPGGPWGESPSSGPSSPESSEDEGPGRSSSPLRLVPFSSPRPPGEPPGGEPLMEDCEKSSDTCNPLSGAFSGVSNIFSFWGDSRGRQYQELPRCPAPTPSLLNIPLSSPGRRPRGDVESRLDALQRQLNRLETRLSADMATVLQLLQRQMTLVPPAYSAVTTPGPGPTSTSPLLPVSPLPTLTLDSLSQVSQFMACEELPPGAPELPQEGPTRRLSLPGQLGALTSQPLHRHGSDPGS

CCOC(=O)N[C@@H]1CC[C@@H]2[C@@H](C1)C[C@H]1C(=O)O[C@H](C)[C@H]1[C@H]2/C=C/c1ccc(-c2cccc(F)c2)cn1.O=S(=O)(O)O [SCH 530348, ethyl [(1R,3aR,4aR,6R,8aR,9S,9aS)-9-[(E)-2-[5-(3-fluorophenyl)-2-pyridinyl]ethenyl]-dodecahydro-1-methyl-3-oxonaphtho[2,3-c]furan-6-yl] carbamate bisulfate]
IC50 (human platelets): 0.015 µM | Affecting coagulation parameters (Coagulation parameters): without | Discontinuation of study drug for any adverse event, patients (%) [1]: 6% | Patients completing the sixty day treatment period (%) [1]: 84% | IC50 (hERG): ~0.341 µM | non-TIMI bleeding: Arterial Access, patients (%) ([2]; 10 mg loading dose): 11% | non-TIMI bleeding: Contusion/Bruise, patients (%) ([2]; 10 mg loading dose): 10% | non-TIMI bleeding: Expistaxis, patients (%) ([2]; 10 mg loading dose): 6% | non-TIMI bleeding: GI, patients (%) ([2]; 10 mg loading dose): 2 (2%) | non-TIMI bleeding: Genitourinary, patients (%) ([2]; 10 mg loading dose): 3% | non-TIMI bleeding: Gingival, patients (%) ([2]; 10 mg loading dose): 2 (2%) | non-TIMI bleeding: Incidental Cuts, patients (%) ([2]; 10 mg loading dose): 4% | non-TIMI bleeding: Vascular Puncture, patients (%) ([2]; 10 mg loading dose): 12% | non-TIMI bleeding: Arterial Access, patients (%) ([2]; 20 mg loading dose): 17% | non-TIMI bleeding: Contusion/Bruise, patients (%) ([2]; 20 mg loading dose): 17% | non-TIMI bleeding: Expistaxis, patients (%) ([2]; 20 mg loading dose): 5% | non-TIMI bleeding: GI, patients (%) ([2]; 20 mg loading dose): 1 (1%) | non-TIMI bleeding: Genitourinary, patients (%) ([2]; 20 mg loading dose): 5% | non-TIMI bleeding: Gingival, patients (%) ([2]; 20 mg loading dose): 1 (1%) | non-TIMI bleeding: Incidental Cuts, patients (%) ([2]; 20 mg loading dose): 13% | non-TIMI bleeding: Vascular Puncture, patients (%) ([2]; 20 mg loading dose): 18% | non-TIMI bleeding: Arterial Access, patients (%) ([2]; 40 mg loading dose): 14% | non-TIMI bleeding: Contusion/Bruise, patients (%) ([2]; 40 mg loading dose): 18% | non-TIMI bleeding: Expistaxis, patients (%) ([2]; 40 mg loading dose): 5% | non-TIMI bleeding: GI, patients (%) ([2]; 40 mg loading dose): 3% | non-TIMI bleeding: Genitourinary, patients (%) ([2]; 40 mg loading dose): 2% | non-TIMI bleeding: Gingival, patients (%) ([2]; 40 mg loading dose): 1% | non-TIMI bleeding: Incidental Cuts, patients (%) ([2]; 40 mg loading dose): 10% | non-TIMI bleeding: Vascular Puncture, patients (%) ([2]; 40 mg loading dose): 15% | non-TIMI bleeding: Arterial Access, patients (%) ([2]; All SCH 530348): 14% | non-TIMI bleeding: Contusion/Bruise, patients (%) ([2]; All SCH 530348): 15% | non-TIMI bleeding: Expistaxis, patients (%) ([2]; All SCH 530348): 5% | non-TIMI bleeding: GI, patients (%) ([2]; All SCH 530348): 2% | non-TIMI bleeding: Genitourinary, patients (%) ([2]; All SCH 530348): 3% | non-TIMI bleeding: Gingival, patients (%) ([2]; All SCH 530348): 1% | non-TIMI bleeding: Incidental Cuts, patients (%) ([2]; All SCH 530348): 9% | non-TIMI bleeding: Vascular Puncture, patients (%) ([2]; All SCH 530348): 15% | Any bleed, patients (%) ([2]; 10 mg loading dose): 37% | TIMI Major bleeding, patients (%) ([2]; 10 mg loading dose): 1.6% | TIMI Major/Minor bleeding, patients (%) ([2]; 10 mg loading dose): 1.6% | non-TIMI bleeding (overall), patients (%) ([2]; 10 mg loading dose): 36% | Any bleed, patients (%) ([2]; 20 mg loading dose): 43% | TIMI Major/Minor bleeding, patients (%) ([2]; 20 mg loading dose): 2.5% | TIMI Minor bleeding, patients (%) ([2]; 20 mg loading dose): 2.5% | non-TIMI bleeding (overall), patients (%) ([2]; 20 mg loading dose): 43% | Any bleed, patients (%) ([2]; 40 mg loading dose): 45% | TIMI Major bleeding, patients (%) ([2]; 40 mg loading dose): 0.6% | TIMI Major/Minor bleeding, patients (%) ([2]; 40 mg loading dose): 4.0% | TIMI Minor bleeding, patients (%) ([2]; 40 mg loading dose): 3.4% | non-TIMI bleeding (overall), patients (%) ([2]; 40 mg loading dose): 42% and 43% | Any bleed, patients (%) ([2]; All SCH 530348): 42% | TIMI Major bleeding, patients (%) ([2]; All SCH 530348): 0.7% | TIMI Minor bleeding, patients (%) ([2]; All SCH 530348): 2.1% | non-TIMI bleeding (overall), patients (%) ([2]; All SCH 530348): 41% and 40% | TIMI Major/Minor bleeding, patients (%) ([2]; All SCH 530348, primary safety endpoint): 2.8% | QT prolongation [3]: no evidence of QT prolongation | Changes in laboratory safety tests or ECGs [4]: no significant treatment-related changes or abnormalities | Effect on arachidonic acid (AA)-induced platelet aggregation (platelets): no effect
